According to patent publication US5198462A, “Heterocyclic amine, derivatives, their production and use” (Takeda Chemical Industries, Ltd., priority 1990, dated 1993):

Key:
[1] = molecular target: T1, Acyl-CoA:cholesterol transferase (ACAT) (Rattus norvegicus, UniProt Q7TQM4); assay: Acyl-CoA:cholesterol transferase (ACAT)-inhibiting action; type: biochemical, Sprague-Dawley rats; conditions: 10^-6 M; microsomal fraction of mucosal cells from rat small intestines; labeled cholesterol ester formed from [1-14C]oleyl-CoA; read-out: ACAT inhibiting rate (%) 10^-6 M
T1 construct: prepared from the microsomal fraction of mucosal cells from the small intestines of 6-week old Sprague-Dawley rats; from tissue; host or cells: microsomal fraction of small-intestinal mucosal cells, Sprague-Dawley rats
T1 sequence (Q7TQM4 1-524): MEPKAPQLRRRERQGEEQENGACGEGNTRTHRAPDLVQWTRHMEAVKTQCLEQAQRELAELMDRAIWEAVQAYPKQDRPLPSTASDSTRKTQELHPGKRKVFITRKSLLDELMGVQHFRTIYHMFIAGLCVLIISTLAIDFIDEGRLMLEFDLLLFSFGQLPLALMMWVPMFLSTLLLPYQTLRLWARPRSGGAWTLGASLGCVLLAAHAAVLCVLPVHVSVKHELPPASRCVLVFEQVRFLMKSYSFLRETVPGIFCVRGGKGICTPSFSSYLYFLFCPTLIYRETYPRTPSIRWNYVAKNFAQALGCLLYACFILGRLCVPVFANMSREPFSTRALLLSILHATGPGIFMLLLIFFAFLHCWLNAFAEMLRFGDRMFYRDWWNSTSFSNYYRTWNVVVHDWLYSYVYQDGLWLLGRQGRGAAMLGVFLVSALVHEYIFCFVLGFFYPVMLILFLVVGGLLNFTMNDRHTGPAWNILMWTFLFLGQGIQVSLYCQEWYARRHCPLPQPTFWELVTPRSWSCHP
Procedure: The enzyme specimen ACAT was prepared from the microsomal fraction of mucosal cells from the small intestines of 6-week old Sprague-Dawley rats fasted for 20 hours, in accordance with the method described by Heider, et al. on Journal of Lipid Research, Vol. 24, p. 1127 (1982).
The activity of ACAT was calculated by determining the amount of labeled cholesterol ester formed from [1-^14 C]oleyl-CoA and endogenous cholesterol.
In Table 1, the inhibition rate (%) of formation of labeled cholesterol ester by the addition of test compounds (representing the compounds obtained by the following Working Examples 1 to 31) in an amount of 10^-6 M is shown as the index of the action of inhibiting ACAT.

[2] = Plasma cholesterol lowering activity in cholesterol fed rat; type: in vivo, Sprague-Dawley rats; conditions: 4 days, 1% cholesterol diet, n=5, mean ± standard deviation, *p < 0.05 vs. control (control 191.0 ± 25.6)
Procedure: 7-week old, male Sprague-Dawley rats were fed a 1% cholesterol diet (containing 0.5% cholic acid and 5% olive oil) for three days, and then the rats were grouped according to the plasma cholesterol level (n=5). They were fed with the diet as described above containing test compound for further 4 days. Blood was collected from the rats during 8:30-10:00 am at the fed state, and the plasma cholesterol level was measured enzymatically. The amount of test compound consumed by rats was calculated on the basis of the amount of the diet consumed by the rats.

Row | SMILES | inhibition at 1 µM [1] | Cholesterol in Serum ([2]; dose 0.14 mg/kg/day in diet) | Cholesterol in Serum ([2]; dose 0.13 mg/kg/day in diet)
1 | O=C(Nc1ccc(F)cc1F)Nc1oc(=O)c2ccc(Cl)cc2c1-c1ccccc1 [Example 1, N-(6-Chloro-4-phenylisocoumarin-3-yl)-N'-(2,4-difluorophenyl)urea] | 98% | – | –
2 | CC(C)(C)OC(=O)Nc1oc(=O)c2ccc(Cl)cc2c1-c1ccccc1 [Example 2, t-Butyl N-(6-chloro-4-phenylisocoumarin-3-yl) carbamate] | 76.1% | – | –
3 | Cc1cc2c(-c3ccccc3C)c(NC(=O)Nc3ccc(F)cc3F)n(C)c(=O)c2cc1C [Example 8, N-[1,2-Dihydro-4-(2-methylphenyl)-2,6,7-trimethyl-1-oxoisoquinolin-3-yl]-N'-(2,4-difluorophenyl)urea] | 64.9% | – | –
4 | O=C(Nc1ccc(F)cc1F)Nc1oc(=O)c2cc(Cl)ccc2c1-c1ccccc1 [Example 9, N-(7-Chloro-4-phenylisocoumarin-3-yl)-N'-(2,4-difluorophenyl)urea] | 89.8% | – | –
5 | Cc1ccc2c(=O)oc(NC(=O)Nc3ccc(F)cc3F)c(-c3ccc(F)cc3)c2c1 [Example 10, N-[4-(4-Fluorophenyl)-6-methylisocoumarin-3-yl]-N'-(2,4-difluorophenyl)urea] | 98.5% | – | –
6 | O=C(Nc1ccc(F)cc1F)Nc1oc(=O)c2ccccc2c1-c1ccc(F)cc1 [Example 11, N-[4-(4-Fluorophenyl)isocoumarin-3-yl]-N'-(2,4-difluorophenyl)urea] | 92.1% | – | –
7 | O=C(Nc1ccc(F)cc1F)Nc1oc(=O)c2ccccc2c1-c1ccccc1 [Example 12, N-(4-Phenylisocoumarin-3-yl)-N'-(2,4-difluorophenyl)urea] | 94.2% | – | –
8 | CC(=O)Oc1c(C)cc(NC(=O)Nc2oc(=O)c3ccc(Cl)cc3c2-c2ccccc2)cc1C [Example 13, N-(6-Chloro-4-phenylisocoumarin-3-yl)-N'-(4-acetoxy-3,5-dimethylphenyl)urea] | 95.8% | – | –
9 | COc1ccccc1-c1c(NC(=O)Nc2cc(C)c(OC(C)=O)c(C)c2)oc(=O)c2ccccc12 [Example 14, N-[4-(2-Methoxyphenyl)isocoumarin-3-yl]-N'-(4-acetoxy-3,5-dimethylphenyl)urea] | 99% | 103.4 ± 23.7 mg/dL | –
10 | CC(=O)Oc1c(C)cc(NC(=O)Nc2oc(=O)c3ccc(F)cc3c2-c2ccc(F)cc2)cc1C [Example 17, N-[6-Fluoro-4-(4-fluorophenyl)isocoumarin-3-yl]-N'-(4-acetoxy-3,5-dimethylphenyl)urea] | 65.7% | – | –
11 | CC(=O)Oc1c(C)cc(NC(=O)Nc2oc(=O)c3ccccc3c2-c2ccccc2)cc1C [Example 18, N-(4-Isocoumarin-3-yl)-N'-(4-acetoxy-3,5-dimethylphenyl)urea] | 83.2% | – | –
12 | CC(=O)Oc1c(C)cc(NC(=O)NC2=C(c3ccccc3)c3ccccc3CS2)cc1C [Example 26, N-(4-acetoxy-3,5-dimethylphenyl)-N'-(4-phenyl-1H-2-benzothiopyran-3-yl)urea] | 94.8% | – | –
13 | COc1ccccc1C1=C(NC(=O)Nc2cc(C)c(OC(C)=O)c(C)c2)SCc2ccccc21 [Example 27, N-(4-Acetoxy-3,5-dimethylphenyl)-N'-[4-(2-methoxyphenyl)-1H-2-benzothiopyran-3-yl]urea] | 99.3% | – | –

Continued, in another order:

Row | inhibition at 1 µM [1] | SMILES | Cholesterol in Serum ([2]; dose 0.14 mg/kg/day in diet) | Cholesterol in Serum ([2]; dose 0.13 mg/kg/day in diet)
14 | 99.4% | COc1ccccc1-c1c(NC(=O)Nc2ccc(F)cc2F)oc(=O)c2ccccc12 [Example 15, N-[4-(2-Methoxyphenyl)isocoumarin-3-yl]-N'-(2,4difluorophenyl)urea] | – | 125.2 ± 22.6 mg/dL
15 | 60.2% | O=C(Nc1ccc(F)cc1F)Nc1oc(=O)c2ccc(F)cc2c1-c1ccc(F)cc1 [Example 16, N-[6-Fluoro-4-(4-fluorophenyl)isocoumarin-3-yl]-N'-(2,4-difluorophenyl)urea] | – | –
16 | 97.7% | COc1ccccc1-c1c(NC(=O)NC2CCCCC2)oc(=O)c2ccccc12 [Example 19, N-[4-(2-Methoxyphenyl)isocoumarin-3-yl]-N'-cyclohexylurea] | – | –
17 | 88.7% | CCOC(=O)CNC(=O)Nc1oc(=O)c2ccccc2c1-c1ccccc1OC [Example 20, N-[4-(2-Methoxyphenyl)isocoumarin-3-yl]-N'-ethoxycarbonyl-methylurea] | – | –
18 | 54.3% | Cn1c(NC(=O)Nc2ccc(F)cc2F)c(-c2cc(C(C)(C)C)c(O)c(C(C)(C)C)c2)c2ccccc2c1=O [Example 23, N-[4-(3,5-Di-t-butyl-4-hydroxyphenyl)-1,2-dihydro-2-methyl-1-oxoisoquinolin-3-yl-]-N'-(2,4-difluorophenyl)urea] | – | –
19 | 92% | COc1ccccc1C1=C(NC(=O)Nc2ccc(N(C)C)cc2)SCc2ccccc21 [Example 28, N-(4-Dimethylaminophenyl)-N'-[4-(2-methoxyphenyl)-1H-2-benzothiopyran-3-yl]urea] | – | –
20 | 95.5% | Cc1cc(NC(=O)NC2=C(c3ccccc3)c3ccccc3CS2)cc(C)c1O [Example 29, N-(4-Hydroxy-3,5-dimethylphenyl)-N'-(4-phenyl-1H-2-benzothiopyran-3-yl)urea] | – | –
